According to patent US4625016A, “Collagen inhibiting compositions and processes for manufacturing and using same” (University of Medicine and Dentistry of New Jersey, priority 1983, dated 1986):

Experiments:
[1] = test system: normal human skin fibroblasts; assay: Attachment and growth of human skin fibroblasts in plastic culture flasks (assay of collagen synthesis); format: cell-based
Excerpt: The principle of the test system is that when collagen-producing cells, such as normal skin fibroblasts are introduced into a plastic flask containing a nutrient medium, the cells attach to the surface of the flask and grow. However, firm attachment of normal fibroblasts to the surface of the flask requires that the cells first synthesize a "pad" comprised of collagen fibers and several other materials through which the collagen producing cells attach to the plastic surface. If synthesis of normal collagen fibers is prevented, the collagen-producing cells, such as the normal skin fibroblasts, will not attach and therefore will not grow. […] The manner in which cis-4-hydroxy-L-proline produces these effects has been disclosed in 336 Biochimica et Biophysica Acta 234, (1974); 174 Archives of Biochemistry and Biophysics 381 (1976); 226 Nature 63 (1977); and 272 Nature 622 (1978).
None of the three polymeric compositions are soluble in water and are consequently dissolved in 50% acetic acid and water. The solution is placed dropwise on a microscopic coverslip and the solvent evaporated with warm air from a hair dryer. The coverslip, coated with the composition, is then placed in a plastic culture flask (75 cm^2; Falcon). From 5×10^5 to 10.5×10^5 normal human fibroblasts in 2 ml of cell culture medium are added to the flask. The flask is incubated at 37° C. in 5% carbon dioxide and 95% air for 3 to 5 days, and the number of cells in the flask counted. Control sample contained microscopic coverslips treated with an equal volume of solvent and air-dried.

KB cells = details: as disclosed in 266 Nature 63 (1977); cited from earlier work

## O=C(O)[C@@H]1C[C@H](O)CN1 [cis-4-Hydroxy-L-proline, cis-4-hydroxy-L-proline]
[1]; Expt. 1, dosage level 250 μg/ml, initial 5.0 × 10^5, 3 to 5 days, None: 67
  Cells per flask, Final: < 1 × 10^5
[1]; Expt. 2, dosage level 100 μg/ml, initial 10.3 × 10^5, None: 98
  Cells per flask, Final: 2.2 × 10^5
[1]; Expt. 3, dosage level 50 μg/ml, initial 7.0 × 10^5, None: 56
  Cells per flask, Final: 12 × 10^5
[1]; Expt. 3, dosage level 150 μg/ml, initial 7.0 × 10^5, None: 56
  Cells per flask, Final: 1.3 × 10^5
[1]; no dose stated
  Attachment and growth of normal fibroblasts (in words): prevents attachment and growth
KB cells
  Growth of cells which do not produce collagen (in words): not inhibited
